# Measurements reported in publication PMC12064818, “A general assay platform to study protein pharmacology using ligand-dependent structural dynamics” (Nature Communications, 2025).
# Biological target: T1, FLuc-C-HiBiT (Photinus pyralis, UniProt P08659)
# T1 construct: firefly luciferase with C-terminal HiBiT tag, E. coli expressed
# Assay: biochemical
# Conditions: enzyme activity, 10 uM ATP; read-out: IC50 or SDR50 (mM) / FLuc E
# Procedure: The enzyme activity of FLuc-N-HiBiT, FLuc-C-HiBiT, and FLuc-C-NLuc was measured similar to P. pyralis firefly luciferase (FLuc) as previously described. […] Compounds and controls were added to each plate as described in Supplementary Data 8 with a Hornet pintool system (Wako Automation). Compounds were incubated with respective enzymes for 30–60 min at room temperature protected from light and covered by solid metal lid to prevent evaporation. […] Luciferin was incubated with FLuc enzyme for 5 min before FLuc activity was then measured on a ViewLux CCD imager (PerkinElmer), with exposure times up to ten seconds with medium to high gain settings. Data were normalized to average no enzyme control as 100% enzyme inhibition and average DMSO neutral control. See Supplementary Table 4 for additional details. As a proof-of-concept target, we appended the sensor protein or corresponding α-peptide to either the N- or C-terminus of the target protein firefly luciferase (FLuc), an ATP cofactor-dependent monooxygenase (Supplementary Fig. 1a) having a broad, well-characterized and accessible ligand pharmacology. For initial characterization of the SDR concept, either NLuc or the 11 amino acid HiBiT tag (α-peptide) and complementary 18 kDa LgBiT subunit (ω-fragment), which self-assemble to reconstitute functional NLuc enzyme[24] were tested. In contrast to the ATP-dependent bioluminescent FLuc enzyme, NLuc generates a bright bioluminescence in an ATP-independent manner from the direct oxidation of furimazine (Supplementary Fig. 1b). […] Next, FLuc-C-NLuc, FLuc-N-HiBiT or FLuc-C-HiBiT were assayed with the same inhibitor in an SDR assay format by monitoring bioluminescence from NLuc or its reconstitution by α-complementation with LgBiT. Measurements of NLuc activity were made either in the absence or presence of the FLuc ATP cofactor, as NLuc bioluminescence is ATP-independent.
# T1 sequence (P08659 whole entry, looked up): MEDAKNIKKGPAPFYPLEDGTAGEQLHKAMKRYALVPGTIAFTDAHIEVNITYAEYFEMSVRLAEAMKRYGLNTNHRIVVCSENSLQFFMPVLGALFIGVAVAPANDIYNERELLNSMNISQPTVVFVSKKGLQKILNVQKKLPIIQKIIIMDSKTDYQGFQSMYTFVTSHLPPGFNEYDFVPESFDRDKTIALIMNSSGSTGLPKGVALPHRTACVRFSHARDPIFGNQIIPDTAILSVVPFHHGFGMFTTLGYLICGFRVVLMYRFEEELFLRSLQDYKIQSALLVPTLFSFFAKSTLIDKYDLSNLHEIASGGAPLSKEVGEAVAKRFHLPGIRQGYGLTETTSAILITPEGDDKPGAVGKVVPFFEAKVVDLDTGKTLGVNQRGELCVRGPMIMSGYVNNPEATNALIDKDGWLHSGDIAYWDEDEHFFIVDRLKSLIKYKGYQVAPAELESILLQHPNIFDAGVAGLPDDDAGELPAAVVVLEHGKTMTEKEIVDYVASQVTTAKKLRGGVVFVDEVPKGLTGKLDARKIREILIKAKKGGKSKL
row,Compound,IC50 [µM]
1,Cc1ccc(Cl)cc1-n1nnc(-c2nsc(NC(=O)c3ccccc3Cl)n2)c1C [NCGC00105211-01],> 30
2,c1ccc(COc2cccc(-c3nc4ccccc4s3)c2)cc1 [NCGC00167622-01],4.95
3,Fc1ccc(Cc2cn3cc(-c4ccc(F)cc4)nc3s2)cc1 [NCGC00102134-01],0.881
4,CCCN1CCNc2cc(Nc3ccccc3)ncc2C1 [NCGC00411254-01],25.4
5,NC(=O)[C@@H]1CCCN1C(=O)c1ccc2oc(-c3cccc(F)c3)nc2c1 [NCGC00444081-01],> 30
6,COc1ccccc1-c1cc2nc(C)c(CCC(=O)O)c(C)n2n1 [NCGC00108411-01],12.4
7,O=C(Nc1nc2c(s1)CCCC2)c1ccccc1F [NCGC00118438-01],0.556
8,CCOc1ccc2nc(N3CCN(C(=O)c4ccco4)CC3)sc2c1 [NCGC00137033-01],12.4
9,COc1cccc(Nc2ncc(-c3ccc(OC)nc3)c3c2OCC3)c1 [NCGC00412784-01],20.2
10,C[S+](=O)([O-])CCn1ncc2cc(OCc3cccc(-c4cccnc4)c3)ccc21 [NCGC00418034-01],16.1
11,Cc1ccc(NC(=O)c2ncoc2-c2ccco2)cc1Cl [NCGC00131543-01],6.24
12,CC(C)n1cnnc1CN(C)c1nc(N)nc2[nH]cnc12 [NCGC00449084-01],> 30
13,O=C(NCCC1CCN(C(=O)Nc2cc(F)cc(F)c2)CC1)c1ccc(F)cc1 [NCGC00425011-01],> 30
14,COC(=O)c1cccc(-c2noc(-c3ccccc3F)n2)c1 [NCGC00183594-01],3.51
15,CC1CCCN(C(=O)c2cc3ccc4cccnc4c3[nH]2)C1 (stereo not shown) [NCGC00126906-01],0.556
16,COc1ccc(-c2cc3c(cn2)CN(C(C)=O)CCN3)cc1 [NCGC00411126-01],12.8
17,CC(=O)Nc1cccc(-c2cccc(CCOc3cnc4c(ccn4CC(=O)O)c3)c2)c1 [NCGC00418203-01],16.1
18,O=C(Nc1ccc(F)cc1)Nc1cccc(-c2ccc(N3CCOCC3)nn2)c1 [NCGC00427578-01],1.97
19,COc1ccc(-c2nc(C)c(CCNC(=O)c3c(F)cccc3F)s2)cc1 [NCGC00135823-01],> 30
20,Nc1nc2c(nc(O)n2[C@H]2C[C@H](O)[C@@H](CO)O2)c(=O)[nH]1 [NCGC00475978-01],> 30
21,O=C(c1cc(-c2ccc(F)cc2)nc2ccccc12)N1CCC(Cc2nncn2CC2CC2)CC1 [NCGC00456245-01],8.81

row,Compound,IC50 [µM]
1,O=C(Nc1n[nH]c2cc(-c3ccccc3)ccc12)C1CC1 [NCGC00242141-02],12.4
2,Cn1cc(-c2cnc(Nc3ccc(N4CCOCC4)cc3)c3c2CCO3)cn1 [NCGC00412818-01],14.3
3,CN1CCCCCCN(C(=O)Nc2ccc3c(c2)OCCO3)CCC1=O [NCGC00466735-01],9.89
4,CCc1ccc2nc(N3CCC(C(=O)O)CC3)sc2c1 [NCGC00112332-01],0.0351
5,c1ccc(CCCNc2nccc(-c3ccccn3)n2)nc1 [NCGC00443451-01],> 30
6,COc1ccc(-c2ccc(CN3CC(C)(NC(C)=O)C3)s2)cn1 [NCGC00410343-01],20.2
7,Cc1cc(CNC(=O)C2CCCCn3nnnc32)c2[nH]c(-c3ccccc3)c(C)c2c1 (stereo not shown) [NCGC00434459-01],11.1
8,O=C(Nc1ccc(-c2nc3ccccc3s2)c(O)c1)c1ccc(Br)cc1 [NCGC00098662-01],> 30
9,CCC(=O)Nc1cc(-c2nc3ccccc3s2)c(Cl)cc1Cl [NCGC00103217-01],> 30
10,CC(=O)Nc1cccc(-c2cc3c(cn2)CN(Cc2ccccc2)CCN3)c1 [NCGC00411143-01],16.1
11,CN1CCN(C(=O)COc2ccc(-c3nc4ccccc4s3)cc2)CC1 [NCGC00042506-01],0.495
12,C[C@@H]1C(=O)O[C@H]2[C@H]1CC[C@@]1(C)Cc3sc(NC(=O)COCC(=O)O)nc3[C@@H](C)[C@H]21 [NCGC00391314-01],5.7
13,COc1ccc(-c2cn3nc(N4CCCC(C(=O)NCc5ccccc5OC)C4)sc3n2)cc1 (stereo not shown) [NCGC00123654-01],11.1
14,CC(C)COc1ccc(C(=O)Nc2onc3c2CCCC3)cc1 [NCGC00115916-01],1.97
15,CC(=O)NC1CCN(Cc2cn(-c3ccc(C)cc3)nc2-c2cccc(C)c2)C1 (stereo not shown) [NCGC00437791-01],14
16,CN1c2cc(C(=O)Nc3ccc4c(c3)OCCO4)ccc2C(=O)N2CCCC21 (stereo not shown) [NCGC00452151-01],7.85
17,COc1ccc(CNC(=O)C[C@@H]2C[C@@H](C(C)C)[C@H](CNC(=O)c3cccnc3)C=C2C)cc1 [NCGC00394780-01],> 30
18,O=C1c2cnc(-c3cc4ccccc4o3)nc2OCCN1Cc1ccccc1 [NCGC00413600-01],1.61
19,COc1ccc(CN2CC(COc3ccccc3)C3(C2)CN(c2ccccc2)C3)cc1O (stereo not shown) [NCGC00415956-01],> 30
20,Cc1c(NC(=O)Cc2ccccc2)cccc1-c1nc2ccccc2s1 [NCGC00595047-01],0.7
21,Cc1ccc(NC(=O)Nc2ccc(C)n(CC(=O)N3CCC(C)CC3)c2=O)cc1 [NCGC00430800-01],3.94

row,Compound,IC50 [µM]
1,Cc1cc(CNC(=O)C2(C(N)=O)CC2)c2[nH]c(-c3ccccc3)c(C)c2c1 [NCGC00426839-01],11.1
2,CCN1C(=O)CCc2cc(NC(=O)c3ccc(C(C)C)cc3)ccc21 [NCGC00425391-01],9.89
3,Cc1ccc(C)c(N2CCN(C(=O)c3ccc(NC(=O)c4nsc5ccccc45)cc3)CC2)c1 [NCGC00134456-01],9.89
4,CN(C)c1ccc(-c2nc(C3CCOC3)no2)cc1 (stereo not shown) [NCGC00447436-01],9.89
5,C[C@@H]1C(=O)O[C@H]2[C@H]1CC[C@@]1(C)Cc3sc(NC(=O)c4c(F)cccc4F)nc3[C@@H](C)[C@H]21 [NCGC00421654-01],9.89
6,O=C1c2cnc(-c3ccc(F)cc3F)nc2OCCN1CC1CC1 [NCGC00413656-01],18
7,Cc1ccc(NC(=O)N2CCC(CCNC(=O)C3CCC3)CC2)cc1F [NCGC00425059-01],12.4
8,CC(C)(Oc1ccc(-c2nc3cc(Cl)ccc3s2)cc1)C(=O)O [NCGC00386771-01],8.81
9,CCc1ccc2oc(-c3ccc(NC(=O)c4ccc(OC)c(Br)c4)cc3)nc2c1 [NCGC00098340-01],> 30
10,Cc1ccc(NC(=O)Nc2ccc(C)n(CC(=O)NCCN3CCCC3)c2=O)cc1 [NCGC00430806-01],11.1
11,COc1ccc(OC)c(CN2CCOc3ccc(C(=O)NCc4ccc(C)cc4)cc3C2)c1 [NCGC00426332-01],> 30
12,Cc1ccc(-c2nnc(SCc3ccccc3)o2)cc1 [NCGC00141131-01],11.1
13,Cc1ccc(-c2cc3c(=O)n(CCNC(=O)c4ccc(C)s4)ccn3n2)c(C)c1 [NCGC00456966-01],7
14,OC1CN(Cc2ccc(-c3cnc4c(OCc5ccccc5)nccn34)cc2)C1 [NCGC00414051-01],20.2
15,Cc1ccc(C2=CC(c3ccccc3F)n3c(nc4ccccc43)N2)cc1C (stereo not shown) [NCGC00140809-01],3.13
16,Nc1ccc(-c2nc3ccccc3s2)cc1 [NCGC00165328-03],1.76
17,Fc1ccc(-n2ncc3c(N4CCC(Cc5ccccc5)CC4)ncnc32)cc1 [NCGC00139053-01],> 30
18,O=C(Nc1c(C(=O)Nc2ccc(F)cc2)oc2ccccc12)c1cc2ccccc2o1 [NCGC00111604-01],7.85
19,Cc1ccc2nc(-c3ccc(NC(=O)COc4ccccc4C(C)(C)C)cc3)sc2c1 [NCGC00098265-01],14
